Assay results published in ChEMBL document CHEMBL1201862, “PubChem BioAssay data set” (2004).
Calls of active or inactive are those of the source.

Tests used:
[1] = biological target: Major prion protein (Homo sapiens, UniProt P04156); assay type: functional, cell-based
[2] = cells
[3] = NIH-3T3 fibroblast cytotoxicity, dose response, cytotoxicity control, cell-based, fluorescence, Alamar Blue, secondary assay (AID 2327); assay type: functional;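 note: NIH-3T3 mouse fibroblasts cultured with fluconazole at 8 µg/mL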
[4] = fluconazole-exposed Candida albicans growth modulators – fluorescence, retest, confirmation (AID 2467); assay type: functional, cell-based
[5] = biological target: T1, Short transient receptor potential channel 4 (Mus musculus, UniProt Q9QUQ5); test: calcium entry via TRPC4 opening agents – cell-based, HEK293 TRPC4/mu-opioid, Fluo-4 calcium, dose response (AID 434937); assay type: functional
T1 sequence (Q9QUQ5 whole entry): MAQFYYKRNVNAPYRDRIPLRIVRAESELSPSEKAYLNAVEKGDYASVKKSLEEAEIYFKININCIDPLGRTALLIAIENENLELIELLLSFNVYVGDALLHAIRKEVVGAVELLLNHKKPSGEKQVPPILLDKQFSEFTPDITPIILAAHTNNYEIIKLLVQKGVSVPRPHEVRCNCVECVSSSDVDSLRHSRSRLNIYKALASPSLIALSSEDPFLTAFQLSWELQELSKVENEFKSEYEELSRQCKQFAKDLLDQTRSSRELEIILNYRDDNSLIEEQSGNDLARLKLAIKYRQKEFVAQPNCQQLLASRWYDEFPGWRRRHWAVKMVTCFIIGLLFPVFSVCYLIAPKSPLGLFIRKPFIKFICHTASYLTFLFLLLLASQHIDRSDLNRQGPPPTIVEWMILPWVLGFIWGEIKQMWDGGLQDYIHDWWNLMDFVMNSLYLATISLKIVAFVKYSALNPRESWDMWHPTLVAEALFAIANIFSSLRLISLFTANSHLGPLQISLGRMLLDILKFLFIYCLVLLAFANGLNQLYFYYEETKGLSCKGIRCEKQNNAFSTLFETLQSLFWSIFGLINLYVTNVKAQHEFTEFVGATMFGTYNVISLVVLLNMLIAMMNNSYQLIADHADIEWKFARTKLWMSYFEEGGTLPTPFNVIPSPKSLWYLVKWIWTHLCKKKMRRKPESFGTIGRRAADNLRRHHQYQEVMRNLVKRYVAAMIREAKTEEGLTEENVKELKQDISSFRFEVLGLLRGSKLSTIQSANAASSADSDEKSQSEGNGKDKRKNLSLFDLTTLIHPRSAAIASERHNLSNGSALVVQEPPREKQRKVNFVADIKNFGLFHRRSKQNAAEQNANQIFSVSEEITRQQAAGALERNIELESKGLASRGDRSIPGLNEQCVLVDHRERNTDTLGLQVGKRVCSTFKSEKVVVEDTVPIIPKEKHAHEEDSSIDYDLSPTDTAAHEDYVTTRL

[6] = biological target: T2, High affinity choline transporter 1 (Homo sapiens, UniProt Q9GZV3); test: human choline transporter blockers, potency – cell-based, 5-point CRC, membrane potential dye, dose response (AID 504840); assay type: functional
T2 sequence (Q9GZV3 whole entry): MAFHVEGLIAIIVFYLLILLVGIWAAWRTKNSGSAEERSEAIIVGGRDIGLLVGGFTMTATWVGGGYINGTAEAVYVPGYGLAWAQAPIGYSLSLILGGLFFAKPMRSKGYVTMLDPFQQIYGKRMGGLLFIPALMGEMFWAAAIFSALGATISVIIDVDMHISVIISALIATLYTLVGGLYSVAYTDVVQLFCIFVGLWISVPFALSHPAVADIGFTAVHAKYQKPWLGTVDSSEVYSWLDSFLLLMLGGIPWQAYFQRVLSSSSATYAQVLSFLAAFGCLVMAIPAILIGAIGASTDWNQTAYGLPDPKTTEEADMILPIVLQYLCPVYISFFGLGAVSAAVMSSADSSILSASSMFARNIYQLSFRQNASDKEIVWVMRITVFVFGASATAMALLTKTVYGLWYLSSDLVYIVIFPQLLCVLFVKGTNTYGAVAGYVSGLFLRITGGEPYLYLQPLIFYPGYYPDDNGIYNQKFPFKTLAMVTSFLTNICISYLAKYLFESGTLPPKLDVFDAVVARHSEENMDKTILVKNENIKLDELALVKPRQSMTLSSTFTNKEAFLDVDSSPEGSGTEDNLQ

[7] = HGIII-sPLA2 enzyme inhibition potency – biochemical, QFRET, IC50, dose response (AID 743457);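 note: green fluorescence rise as the enzyme cleaves BODIPY PC-A2 in liposomes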
[8] = THP-1 cell cytotoxicity, dose response, cytotoxicity control for non-replicating M. tuberculosis project (AID 489025); assay type: functional
[9] = HepG2 cell cytotoxicity, dose response, cytotoxicity control for non-replicating M. tuberculosis project (AID 489018); assay type: functional; conditions: Mycobacterium tuberculosis
[10] = Vero E6 cell cytotoxicity, dose response, cytotoxicity control for non-replicating M. tuberculosis project, secondary assay (AID 492998); assay type: functional, VeroE6; conditions: Vero C1008
[11] = system: INS1; test: INS-1E survival protection against cytokine death – cell-based, luminescence, retest, dose response (AID 449756); assay type: functional; conditions: Rattus norvegicus;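 note: cell death triggered by IL-1 beta plus TNF-alpha plus IFN-gamma mixture; protective hits raise ATP signal compared with cytokine alone wells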
[12] = general mammalian cell viability loss – inhibitor set, cherry-pick, set 2, cytotoxicity control for miR-122 modulator project, dose response (AID 720697); assay type: functional, cell-based
[13] = general mammalian cell viability loss – activator set, cherry-pick, cytotoxicity control for miR-122 modulator project, dose response (AID 720690); assay type: functional, cell-based;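 note: HEK293T human cells scored for general mammalian cytotoxicity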
[14] = biological target: Paired box protein Pax-8 (Homo sapiens, UniProt Q06710); test: PAX8 transcriptional activity inhibition in RMG-I – RMG-I cells, luciferase, cherry-pick, dose response (AID 687027); assay type: functional, cell-based;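 note: luciferase reporter driven by Pax8 target thyroperoxidase promoter measured by SteadyGlo luminescence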
[15] = toxicity toward immortalized ovarian surface epithelium – cell-based, plate reader, dry powder samples, cytotoxicity control for PAX8 inhibitor project, dose response (AID 743045); assay type: functional
[16] = OVCAR-3 cell viability loss – plate reader, dry powder samples, PAX8 inhibitor project, dose response (AID 743044); assay type: functional, cell-based
[17] = IGROV1 cell killing – plate reader, dry powder samples, PAX8 inhibitor project, dose response (AID 743043); assay type: functional, cell-based; conditions: IGROV-1
[18] = OVCAR8 cell viability loss – plate reader, dry powder samples, PAX8 project, dose response (AID 743197); assay type: functional, cell-based; conditions: OVCAR-8
[19] = HeLa cell viability loss – plate reader, dry powder, cytotoxicity control, dose response (AID 651946); assay type: functional, cell-based
[20] = YAP1 overexpression rescue of CTGF inhibition – DLD1 cells, RT-qPCR, cherry-pick, mechanism study for YAP1 pathway inhibitor project, dose response (AID 1053127); assay type: functional, cell-based; conditions: DLD-1
[21] = CTGF mRNA reduction in DLD1 cells – cell-based, DLD1 colon cancer, RT-qPCR, cherry-pick, dose response (AID 1053122); assay type: functional; conditions: Cancer cell lines
[22] = viability loss in HEK293 kidney cells – cell-based, cherry-picks, set 5, cytotoxicity control, dose response (AID 1053117); assay type: functional

## COc1cccc(NC(=O)CCSc2ccc3ccccc3n2)c1
[1]
  IC50: 3.97 µM (active)
[2]
  IC50: > 138 µM (inactive)

## O=C(NNC(=S)NC(=O)C12CC3CC(CC(C3)C1)C2)c1ccncc1
[3]
  EC50: 26.4 µM (active)
[4]
  EC50: 3.2 µM (active)
[5]
  EC50: 4.22 µM (active)
[6]
  IC50: 28.8 µM (active)
[7]
  IC50: > 122 µM (inactive)

## N#CC1=C(N)Oc2c(ccc3cccnc23)C1c1ccccc1 (configuration not stated)
[8]
  CC50: 4.84 µM (active)
[9]
  CC50: > 20 µM (active)
[10]
  CC50: 5.56 µM (active)
[11]
  AC50: 4.54 µM (active)
[12]
  AC50: 2.47 µM (active)
[13]
  AC50: 42.5 µM (active)

## C[C@H](CO)N1C[C@H](C)[C@H](CN(C)Cc2ccc(C(=O)Nc3ccccc3N)cc2)Oc2ccc(N(C)C)cc2C1=O
[14]
  AC50: 10.5 µM (active)
[15]
  AC50: 56.3 µM (active)
[16]
  AC50: 43.9 µM (active)
[17]
  AC50: 23.4 µM (active)
[18]
  AC50: 33.7 µM (active)

## COc1ccccc1CSc1nnc(-c2ccccc2)o1
[19]
  AC50: > 52 µM (inactive)

## CO[C@@H](CN(C)S(=O)(=O)c1ccc(C)cc1)[C@H](C)CN([C@@H](C)CO)S(=O)(=O)c1cccc(Cl)c1
[20]
  AC50: 17.7 µM (active)
[21]
  AC50: 16.4 µM (active)

## C[C@@H]1CN([C@H](C)CO)C(=O)c2cc(NC(=O)C3CCCCC3)ccc2O[C@H]1CN(C)Cc1ccc(-c2ccccc2)cc1
[22]
  AC50: > 52 µM (inactive)
